From ChEMBL document CHEMBL1201862, “PubChem BioAssay data set” (2004) come the findings set out here.

In one assay the target is T1, Bcl-2-like protein 10 (Homo sapiens, UniProt Q9HD36).
T1 sequence (Q9HD36 whole entry): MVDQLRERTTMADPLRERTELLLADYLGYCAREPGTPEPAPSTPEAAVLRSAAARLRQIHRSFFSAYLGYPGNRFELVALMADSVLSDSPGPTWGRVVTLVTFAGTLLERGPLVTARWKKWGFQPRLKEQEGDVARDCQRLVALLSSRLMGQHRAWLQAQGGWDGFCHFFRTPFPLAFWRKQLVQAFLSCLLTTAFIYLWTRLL
The assay is described as follows: Concentration-response of Bcl-B inhibitors by biochemical FP with TR3 (AID 1243). The assay is classed as functional.

Assay [1] in a line: antiviral protection against BTV-induced cell death – arbovirus, BSR cells, confirmation (AID 1250).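 Note: protection from viral cytopathic effect measured as cell viability by ATP luminescence.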 In kind it is functional.
In a further assay the target is T2, Leucine aminopeptidase (Plasmodium falciparum 3D7, UniProt Q8IL11).
T2 sequence (Q8IL11 whole entry): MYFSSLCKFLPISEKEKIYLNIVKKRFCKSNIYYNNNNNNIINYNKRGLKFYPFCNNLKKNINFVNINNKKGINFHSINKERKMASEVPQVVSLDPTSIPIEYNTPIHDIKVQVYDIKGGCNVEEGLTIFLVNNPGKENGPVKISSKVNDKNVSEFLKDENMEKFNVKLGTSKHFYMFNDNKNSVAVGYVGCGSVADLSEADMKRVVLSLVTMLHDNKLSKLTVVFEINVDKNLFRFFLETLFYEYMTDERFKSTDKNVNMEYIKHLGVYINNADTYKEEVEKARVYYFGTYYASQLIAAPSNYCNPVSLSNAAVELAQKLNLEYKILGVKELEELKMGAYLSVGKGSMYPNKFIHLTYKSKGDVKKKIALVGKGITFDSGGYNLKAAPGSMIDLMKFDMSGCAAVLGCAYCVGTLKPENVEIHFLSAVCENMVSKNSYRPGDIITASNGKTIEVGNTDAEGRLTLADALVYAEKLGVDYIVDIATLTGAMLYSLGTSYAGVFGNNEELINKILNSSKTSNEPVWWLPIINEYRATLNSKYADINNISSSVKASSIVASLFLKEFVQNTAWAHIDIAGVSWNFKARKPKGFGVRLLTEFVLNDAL
The assay is described as follows: P. falciparum M17LAP inhibitors, primary screen, biochemical, fluorogenic H-Leu-NHMec substrate, 1536-well (AID 1619). In kind it is functional.

For the next assay, the target named is Aspartyl aminopeptidase (Plasmodium falciparum 3D7, UniProt Q8I2J3). The assay is described as follows: Counterscreen for inhibitors of M1 and M17 aminopeptidases: QFRET-based biochemical high throughput dose response assay for inhibitors of the Plasmodium falciparum M18 Aspartyl Aminopeptidase (PFM18AAP). [Related PubChem assays: 1619 (Screening assay (M17LAP inhibitors).), 1445 (Screening assay (M1AAP inhibitors).)].
Chain of Aspartyl aminopeptidase (Q8I2J3 whole entry): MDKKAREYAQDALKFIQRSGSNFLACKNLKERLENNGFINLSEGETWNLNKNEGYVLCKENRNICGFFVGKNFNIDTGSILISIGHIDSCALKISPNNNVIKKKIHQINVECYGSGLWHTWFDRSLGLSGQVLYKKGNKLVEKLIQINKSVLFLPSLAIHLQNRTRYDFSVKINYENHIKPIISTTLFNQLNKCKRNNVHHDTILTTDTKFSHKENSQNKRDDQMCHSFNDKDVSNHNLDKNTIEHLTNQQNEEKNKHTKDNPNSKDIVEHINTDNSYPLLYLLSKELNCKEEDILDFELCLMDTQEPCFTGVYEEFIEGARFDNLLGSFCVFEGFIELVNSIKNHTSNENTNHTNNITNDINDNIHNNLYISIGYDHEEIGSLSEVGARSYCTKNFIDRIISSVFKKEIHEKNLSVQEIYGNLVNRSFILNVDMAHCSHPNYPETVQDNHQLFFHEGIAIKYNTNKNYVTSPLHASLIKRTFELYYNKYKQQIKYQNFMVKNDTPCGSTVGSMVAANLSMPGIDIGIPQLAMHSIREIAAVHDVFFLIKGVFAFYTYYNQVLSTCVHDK

The next assay concerns the target Procathepsin L (Homo sapiens, UniProt P07711). The assay is described as follows: CTSL1 protease inhibition – biochemical, QFRET, 1536-well, counter-screen for M1/M17 aminopeptidase inhibitor project, dose response (AID 2214). (A counterscreen serves to expose hits that act by an unwanted route or on another target.)
Assay [2] addresses T3, Replicative DNA helicase DnaB (Mycobacterium tuberculosis, UniProt P9WMR3).
T3 sequence (P9WMR3 whole entry): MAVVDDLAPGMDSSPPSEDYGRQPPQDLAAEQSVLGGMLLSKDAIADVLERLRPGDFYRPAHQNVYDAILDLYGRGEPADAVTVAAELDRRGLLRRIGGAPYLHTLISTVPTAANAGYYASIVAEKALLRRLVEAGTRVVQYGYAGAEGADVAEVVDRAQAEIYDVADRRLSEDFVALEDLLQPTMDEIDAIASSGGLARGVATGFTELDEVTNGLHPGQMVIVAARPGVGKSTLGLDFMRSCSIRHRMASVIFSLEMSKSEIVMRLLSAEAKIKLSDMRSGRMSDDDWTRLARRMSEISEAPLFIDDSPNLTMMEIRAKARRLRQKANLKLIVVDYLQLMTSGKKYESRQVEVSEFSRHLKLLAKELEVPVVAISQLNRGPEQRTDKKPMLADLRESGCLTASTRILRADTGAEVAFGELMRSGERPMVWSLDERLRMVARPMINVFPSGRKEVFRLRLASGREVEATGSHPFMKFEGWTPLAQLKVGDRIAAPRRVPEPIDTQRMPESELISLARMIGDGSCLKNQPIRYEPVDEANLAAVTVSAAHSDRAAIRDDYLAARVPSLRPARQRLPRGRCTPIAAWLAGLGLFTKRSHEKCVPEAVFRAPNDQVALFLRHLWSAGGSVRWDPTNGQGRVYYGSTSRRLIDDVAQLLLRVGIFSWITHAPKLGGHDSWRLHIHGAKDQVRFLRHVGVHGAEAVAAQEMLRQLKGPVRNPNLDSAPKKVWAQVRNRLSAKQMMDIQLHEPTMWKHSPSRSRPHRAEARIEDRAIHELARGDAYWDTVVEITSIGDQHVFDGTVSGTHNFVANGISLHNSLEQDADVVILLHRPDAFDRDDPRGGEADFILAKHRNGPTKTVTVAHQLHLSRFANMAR
The assay is described as follows: DnaB intein splicing inhibitors, dose response, biochemical, cell-free fluorescence (AID 449749). In kind it is functional.

The target in the next assay is T4, Protein RecA (Mycobacterium tuberculosis, UniProt P9WHJ3).
T4 sequence (P9WHJ3 whole entry): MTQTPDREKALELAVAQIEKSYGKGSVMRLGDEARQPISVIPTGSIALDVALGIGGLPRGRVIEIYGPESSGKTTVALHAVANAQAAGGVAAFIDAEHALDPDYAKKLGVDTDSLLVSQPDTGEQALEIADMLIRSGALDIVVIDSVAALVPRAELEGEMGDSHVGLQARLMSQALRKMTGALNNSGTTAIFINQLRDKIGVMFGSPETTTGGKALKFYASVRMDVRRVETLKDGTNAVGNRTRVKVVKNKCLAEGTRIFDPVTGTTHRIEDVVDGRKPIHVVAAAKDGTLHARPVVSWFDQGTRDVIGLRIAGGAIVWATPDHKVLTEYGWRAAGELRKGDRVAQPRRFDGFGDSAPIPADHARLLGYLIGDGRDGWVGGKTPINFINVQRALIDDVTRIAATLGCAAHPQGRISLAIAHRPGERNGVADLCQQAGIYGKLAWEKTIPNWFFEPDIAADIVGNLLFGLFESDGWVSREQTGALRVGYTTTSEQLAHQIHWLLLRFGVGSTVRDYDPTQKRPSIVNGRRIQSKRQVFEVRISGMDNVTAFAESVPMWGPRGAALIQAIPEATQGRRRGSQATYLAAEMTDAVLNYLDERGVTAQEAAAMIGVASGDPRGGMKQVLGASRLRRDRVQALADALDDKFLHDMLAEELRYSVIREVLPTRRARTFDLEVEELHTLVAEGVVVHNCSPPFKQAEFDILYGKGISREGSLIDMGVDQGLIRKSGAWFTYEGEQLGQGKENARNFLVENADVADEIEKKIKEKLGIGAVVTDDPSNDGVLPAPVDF
The assay is described as follows: Fluorescence Cell-Free Homogeneous Dose Retest to Identify Inhibitors of RecA-Intein Splicing Activity. [Related pubchem assays (depositor defined):AID2097, AID2223, AID489010, AID492950]. The assay is classed as functional.

A further assay has as its target T5, Estrogen receptor (Homo sapiens, UniProt P03372).
T5 sequence (P03372 whole entry): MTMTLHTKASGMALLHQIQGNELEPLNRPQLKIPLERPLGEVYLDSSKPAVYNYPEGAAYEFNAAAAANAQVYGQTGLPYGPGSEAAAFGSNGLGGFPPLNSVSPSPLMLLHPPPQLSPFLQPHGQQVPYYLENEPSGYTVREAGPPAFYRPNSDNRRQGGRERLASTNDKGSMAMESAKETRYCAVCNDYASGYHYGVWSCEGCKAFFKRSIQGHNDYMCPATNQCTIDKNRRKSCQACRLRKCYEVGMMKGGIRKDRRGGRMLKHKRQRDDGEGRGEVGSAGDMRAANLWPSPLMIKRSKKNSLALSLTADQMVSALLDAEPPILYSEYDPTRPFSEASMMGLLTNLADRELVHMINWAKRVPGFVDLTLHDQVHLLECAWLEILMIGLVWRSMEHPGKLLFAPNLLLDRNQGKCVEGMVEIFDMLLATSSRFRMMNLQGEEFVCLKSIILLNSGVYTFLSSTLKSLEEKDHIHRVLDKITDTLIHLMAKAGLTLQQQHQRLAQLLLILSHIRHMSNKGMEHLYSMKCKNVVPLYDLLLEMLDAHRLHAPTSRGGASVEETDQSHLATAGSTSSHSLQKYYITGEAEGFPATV
The assay is described as follows: ERα coactivator recruitment enhancers – biochemical, TR-FRET, ERα LBD, dose response (AID 737).

A short description of assay [3]: toxicity toward HepG2 liver cells – cell-based, plate reader, cherry-pick, antagonist series, cytotoxicity control, dose response (AID 743416). The assay is classed as functional.
A short description of assay [4]: blockers of bursicon-stimulated LGR2 cAMP reporter – cell-based, HEK293, CRE-luciferase reporter, cherry pick, set 2, dose response (AID 743343).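 Note: transfected cells were stimulated with diluted bursicon conditioned medium after compound addition.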 The assay is classed as functional. (In a reporter assay the amount or activity of a reporter protein is the signal.)
Assay [5] in a line: blockade of melanocortin 4 receptor signaling – cell-based, plate reader, cherry pick, counter-screen for LGR2 antagonist project, dose response (AID 743444).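 Note: transfected HEK 293 cells stimulated with alpha-MSH peptide; potency of inhibitors of the alpha-MSH evoked signal.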 In kind it is functional.
The nature of assay [6]: viability loss in HEK293 cells – cell-based, plate reader, cherry-picked samples, cytotoxicity control, dose response (AID 743446). The assay is classed as functional.
The target of assay [7] is T6, Sphingosine 1-phosphate receptor 2 (Homo sapiens, UniProt O95136). The assay is described as follows: Dose Response Cell Based Assay for Agonists of the S1P2 Receptor of Purchased Analogues. [Related pubchem assays: 729, 843, 854, 736 ]. In kind it is functional.
T6 sequence (O95136 whole entry): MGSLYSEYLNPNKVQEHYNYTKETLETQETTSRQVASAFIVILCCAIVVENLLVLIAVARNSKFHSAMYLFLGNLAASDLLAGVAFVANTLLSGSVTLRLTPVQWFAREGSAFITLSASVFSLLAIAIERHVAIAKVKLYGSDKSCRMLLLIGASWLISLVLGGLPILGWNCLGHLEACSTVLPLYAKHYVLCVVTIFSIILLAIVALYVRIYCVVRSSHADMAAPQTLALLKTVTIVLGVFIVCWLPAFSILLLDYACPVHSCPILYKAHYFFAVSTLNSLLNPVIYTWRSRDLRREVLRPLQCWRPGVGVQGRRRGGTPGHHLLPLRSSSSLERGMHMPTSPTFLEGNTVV
The target in assay [8] is T6, Sphingosine 1-phosphate receptor 2. The assay is described as follows: Dose Response Cell Based Assay for Agonists of the S1P2 Receptor. [Related pubchem assays: 729, 736, 843 ]. The assay is classed as functional.
A short description of assay [9]: A High Throughput Confirmatory Assay used to Identify Novel Compounds that Inhibit Mycobacterium Tuberculosis in the absence of Glycerol. In kind it is functional.
A further assay concerns HeLa. The assay is described as follows: Cytotoxicity counterscreen assay for transcriptional activators of heat shock protein 70 (Hsp70). [Related pubchem assays: 1203, 1252 ]. The assay is classed as functional. The following applies: Homo sapiens.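 Note: cells exposed to compound for 16 hours before readout.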
Assay [10] can be described thus: viability of PTEN-deleted HCT116 cells – cell-based, HCT116 PTEN knockout, dose response (AID 1047).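 Note: HCT116 colon tumor cells with PTEN knocked out; cells exposed to compound for 60 hours before readout; potency for loss of cell viability measured by luminescence.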 The assay is classed as functional.
Assay [11] can be described thus: viability of HCT116 lacking mutant beta-catenin – cell-based, human colon tumor, dose response (AID 1045).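 Note: HCT116 colon tumor cells with beta catenin knocked out; cells exposed to compound for 60 hours.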 In kind it is functional.
In assay [12] the target is T7, High affinity choline transporter 1 (Homo sapiens, UniProt Q9GZV3).
T7 sequence (Q9GZV3 whole entry): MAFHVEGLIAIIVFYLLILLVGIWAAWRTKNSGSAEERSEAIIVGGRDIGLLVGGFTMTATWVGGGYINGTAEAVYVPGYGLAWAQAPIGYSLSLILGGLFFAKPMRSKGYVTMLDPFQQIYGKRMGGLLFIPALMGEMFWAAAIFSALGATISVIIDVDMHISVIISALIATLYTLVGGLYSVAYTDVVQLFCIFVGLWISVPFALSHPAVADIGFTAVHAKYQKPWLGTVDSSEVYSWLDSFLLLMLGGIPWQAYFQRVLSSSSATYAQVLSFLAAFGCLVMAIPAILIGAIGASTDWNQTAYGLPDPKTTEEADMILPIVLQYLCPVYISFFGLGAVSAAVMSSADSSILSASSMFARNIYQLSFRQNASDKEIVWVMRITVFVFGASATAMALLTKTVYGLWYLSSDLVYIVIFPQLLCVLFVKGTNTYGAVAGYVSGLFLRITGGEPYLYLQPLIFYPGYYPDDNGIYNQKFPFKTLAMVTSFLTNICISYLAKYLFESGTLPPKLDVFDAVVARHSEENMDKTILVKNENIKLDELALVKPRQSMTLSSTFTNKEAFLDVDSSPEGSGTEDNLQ
The assay is described as follows: human choline transporter blockers, potency – cell-based, 5-point CRC, membrane potential dye, dose response (AID 504840). In kind it is functional.

Active and inactive are the calls of the source.

Chain of Procathepsin L (P07711 whole entry): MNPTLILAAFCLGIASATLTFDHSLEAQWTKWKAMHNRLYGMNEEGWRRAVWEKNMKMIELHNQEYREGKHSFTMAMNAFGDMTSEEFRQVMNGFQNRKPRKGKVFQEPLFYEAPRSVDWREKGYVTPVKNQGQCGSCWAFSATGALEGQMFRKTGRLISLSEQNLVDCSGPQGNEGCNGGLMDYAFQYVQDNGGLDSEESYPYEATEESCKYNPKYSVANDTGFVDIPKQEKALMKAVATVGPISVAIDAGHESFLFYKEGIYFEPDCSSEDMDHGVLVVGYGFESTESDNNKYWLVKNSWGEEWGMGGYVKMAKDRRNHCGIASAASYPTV

As usually defined, the EC50 is the concentration giving half of the maximal effect. `O=C(O)c1cccc(-c2ccc(/C=N/Nc3ccc([N+](=O)[O-])cn3)o2)c1`: on Bcl-2-like protein 10, the EC50 is 9.64 µM (active).
One may read the IC50 as the concentration that gives 50% inhibition. For the compound `CN(Cc1ccccc1NC(=O)c1ccc(S(=O)(=O)N(C)C)cc1)C1CCCCC1`, the IC50 in assay [1] is 29.9 µM (active).
One may read the AC50 as the concentration giving half of the maximal activity seen. For `Cc1ccc(SCC2=NNC(=O)C2)cc1`, the 50% inhibitory concentration (IC50) at Leucine aminopeptidase was 1.77 µM (active); against Aspartyl aminopeptidase it was > 73.5 µM (not active); against Procathepsin L, > 59.6 µM (not active). Also, the half-maximal activity concentration (AC50) in [2] is 3.72 µM (active). Also, the EC50 on Protein RecA was 1.01 µM (active).
For `C1COCCO1.O=C(Nc1nc(-c2ccc(S(=O)(=O)N3CCOCC3)cc2)cs1)c1ccccc1`, the half-maximal effective concentration (EC50) at Estrogen receptor was 15.1 µM (active). For the same compound, the AC50 was 36.7 µM (active) in assay [3], 42 µM (active) in [4], 44.3 µM (active) in assay [5] and > 52 µM (inactive) in [6].
For the compound `Cc1cc(C(=O)CN2C(=O)CCC2=O)c(C)n1Cc1ccccc1`, the 50% effective concentration (EC50) in assay [7] is 1.2 µM (active); in assay [8], 2.85 µM (active).
Take `Cc1nnc(SCc2ccccc2Cl)n(N)c1=O`: the IC50 in assay [9] is > 100 µM (active).
For orientation: CC50 means the concentration at which the toxic effect on the cells reaches its halfway point. Low values mean harm at low concentration, high ones better tolerance by the cells. On to `Cc1cc(C(=O)Cn2ncc(Cl)c(Cl)c2=O)c(C)n1CC(F)(F)F`, for which the CC50 in the assay with HeLa was > 11 µM (not active). For the same compound, the results for the EC50 (in [10]; in assay [11]; at Protein RecA) were 3.03 µM (active), 2.06 µM (active) and 2.72 µM (active), respectively. Further, the AC50 in assay [2] was 3.01 µM (active). For the same compound, in [12], the concentration for half-maximal inhibition (IC50) was 20.9 µM (active).
